This is an account of results in PubChem BioAssay AID1328 (NMMLSC, 2008).

Structures are written as SMILES. The source made the active and inactive calls. How the calls were made is not given here.

The target in this experiment is Apoptosis regulator Bcl-2 (Homo sapiens) (UniProt P10415). The experiment is described as follows: Bim-Bcl-2 binding modulators, biochemical, multiplexed, high-throughput, human Bcl-2 (AID 1328). To be noted: Bead-based flow cytometry, fluorescent Bim peptide-Bcl-2 binding.
Apoptosis regulator Bcl-2 (Homo sapiens), sequence (P10415 whole entry, looked up): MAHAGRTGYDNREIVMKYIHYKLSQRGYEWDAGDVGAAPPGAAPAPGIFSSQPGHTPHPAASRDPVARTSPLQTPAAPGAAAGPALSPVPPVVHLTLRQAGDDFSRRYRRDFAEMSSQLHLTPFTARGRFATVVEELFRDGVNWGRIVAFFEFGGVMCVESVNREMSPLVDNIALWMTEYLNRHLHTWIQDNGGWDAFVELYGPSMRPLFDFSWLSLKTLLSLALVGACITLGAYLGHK
`COc1cc(/C=N/Nc2nn3cnnc3c3ccccc23)ccc1O`: the EC50 result is “inactive”. Turning to `CCC(=O)N(CC)C1=C(O)c2ccccc2C(=O)C1=O`, the EC50 result was “inactive”. In the case of `O=[N+]([O-])c1ccc(N/N=C/c2ccc(O)c(O)c2O)c(S(=O)(=O)N2CCOCC2)c1` it was “inactive”; in that of `Clc1ccc2c(N/N=C/c3ccccc3Br)ccnc2c1`, “inactive”.

As for `CN(C)[C@@H]1C(=O)C(C(=O)NCN2CCCC2)=C(O)[C@@]2(O)C(=O)C3=C(O)c4c(O)cccc4[C@@](C)(O)C3CC12` (stereo not given in full), the EC50 entry is “inactive”.
